According to ChEMBL document CHEMBL6092216, “Development of α-Helical Antimicrobial Peptides with Imperfect Amphipathicity for Superior Activity and Selectivity” (J Med Chem, 2024):
The source made the active and inactive calls. The rule behind the calls is not given here.

Columns and labels:
[1] = test system: Acinetobacter baumannii; assay: Antibacterial activity against Acinetobacter baumannii 0357 assessed as inhibition of bacterial growth incubated for 24 hrs by tube microdilution assay; format: functional
[2] = test system: Acinetobacter baumannii; assay: Antibacterial activity against Acinetobacter baumannii 19110 assessed as inhibition of bacterial growth incubated for 24 hrs by tube microdilution assay; format: functional
[3] = test system: Erythrocyte; assay: Induction of hemolysis in mouse red blood cells at 1.56 to 100 ug/ml incubated for 1 hr; format: toxicity, cell-based; details: dose 1.56-100 µg/ml
[4] = test system: Pseudomonas aeruginosa; assay: Antibacterial activity against Pseudomonas aeruginosa 17068 assessed as inhibition of bacterial growth incubated for 24 hrs by tube microdilution assay; format: functional
[5] = test system: Staphylococcus aureus; assay: Antibacterial activity against methicillin-resistant Staphylococcus aureus 42 assessed as inhibition of bacterial growth incubated for 24 hrs by tube microdilution assay; format: functional
[6] = test system: Acinetobacter baumannii; assay: Antibacterial activity against Acinetobacter baumannii ATCC 19606 infected in BALB/c mouse assessed as inhibition of bacterial colonization on wounded skin at 0.1 to 2 mg/ml applied on skin and measured after 2 hrs; format: functional, organism-based; details: dose 0.1-2 mg/ml
[7] = test system: Staphylococcus aureus; assay: Antibacterial activity against methicillin-resistant Staphylococcus aureus 21 assessed as inhibition of bacterial growth incubated for 24 hrs by tube microdilution assay; format: functional
[8] = test system: Pseudomonas aeruginosa; assay: Induction of bacterial cell rupture in Pseudomonas aeruginosa ATCC 27853 assessed as bacterial membrane damage with visible surface irregularities and protrusions at 5XMIC measured after 30 mins scanning electron microscopy; format: functional, organism-based
[9] = test system: Staphylococcus aureus; assay: Antibacterial activity against methicillin-resistant Staphylococcus aureus 52 assessed as inhibition of bacterial growth incubated for 24 hrs by tube microdilution assay; format: functional
[10] = test system: Cell membrane; assay: Induction of membrane permeabilization in Pseudomonas aeruginosa 17068 assessed as increase in fluorescence intensity at 1X to 10XMIC measured for 90 mins by propidium iodide staining based fluorescence analysis; format: subcellular
[11] = test system: Pseudomonas aeruginosa; assay: Bactericidal activity against Pseudomonas aeruginosa ATCC 27853 assessed as elimination of bacterial cells at 5X to 10XMIC measured within 3 hrs by killing kinetic assay; format: functional
[12] = test system: Cell membrane; assay: Induction of membrane permeabilization in Escherichia coli 0894 assessed as increase in fluorescence intensity at 1X to 10XMIC measured for 90 mins by propidium iodide staining based fluorescence analysis; format: subcellular
[13] = test system: Cell membrane; assay: Induction of membrane permeabilization in Staphylococcus aureus ATCC 6538 assessed as increase in fluorescence intensity at 1X to 10XMIC measured for 90 mins by propidium iodide staining based fluorescence analysis; format: subcellular
[14] = test system: Staphylococcus aureus; assay: Antipersister-activity against Staphylococcus aureus ATCC 6538 assessed as elimination of persister cells preincubated adherent persistent cells with vancomycin for 24 hrs followed by incubation with drug for 12 hrs; format: functional, organism-based
[15] = test system: Cell membrane; assay: Induction of membrane permeabilization in Acinetobacter baumannii 0357 assessed as increase in fluorescence intensity at 1X to 10XMIC measured for 90 mins by propidium iodide staining based fluorescence analysis; format: subcellular
[16] = test system: Acinetobacter baumannii; assay: Antibacterial activity against Acinetobacter baumannii 10769 assessed as inhibition of bacterial growth incubated for 24 hrs by tube microdilution assay; format: functional
[17] = test system: Pseudomonas aeruginosa; assay: Antibiofilm activity against preformed Pseudomonas aeruginosa ATCC 27853 biofilms assessed as biofilm eradication at 1X to 10XMIC incubated for 24 hrs by crystal violet staining based analysis; format: functional, organism-based
[18] = test system: Escherichia coli; assay: Antibacterial activity against Escherichia coli 5017 assessed as inhibition of bacterial growth incubated for 24 hrs by tube microdilution assay; format: functional
[19] = test system: HaCaT; assay: Cytotoxicity against human HaCaT cells assessed as effect on cell viability at 3.13 to 400 ug/ml incubated for 24 hrs by CCK-8 assay; format: toxicity, cell-based; details: dose 3.13-400 µg/ml
[20] = test system: Pseudomonas aeruginosa; assay: Antibacterial activity against Pseudomonas aeruginosa 90068 assessed as inhibition of bacterial growth incubated for 24 hrs by tube microdilution assay; format: functional
[21] = test system: Pseudomonas aeruginosa; assay: Antipersister-activity against Pseudomonas aeruginosa ATCC 27853 assessed as elimination of persister cells preincubated adherent persistent cells with colistin for 24 hrs followed by incubation with drug for 12 hrs; format: functional, organism-based
[22] = test system: Staphylococcus aureus; assay: Bactericidal activity against Staphylococcus aureus ATCC 6538 assessed as bacterial cell killing measured after 35 passages; format: functional, organism-based
[23] = test system: Staphylococcus aureus; assay: Induction of bacterial cell rupture in Staphylococcus aureus ATCC 6538 assessed as membrane rupture, roughening and blebbing of membrane at 5XMIC measured after 30 mins by scanning electron microscopy; format: functional, organism-based
[24] = test system: Pseudomonas aeruginosa; assay: Bactericidal activity against Pseudomonas aeruginosa ATCC 27853 assessed as bacterial cell killing measured after 60 passages; format: functional, organism-based
[25] = test system: Staphylococcus aureus; assay: Antibacterial activity against methicillin-resistant Staphylococcus aureus 22 assessed as inhibition of bacterial growth incubated for 24 hrs by tube microdilution assay; format: functional
[26] = test system: Staphylococcus aureus; assay: Ratio of MIC for antibacterial activity against Staphylococcus aureus ATCC 6538 measured following incubation of drug with mouse plasma for 8 hrs to MIC for antibacterial activity against Staphylococcus aureus ATCC 6538; format: functional
[27] = test system: Staphylococcus aureus; assay: Antibacterial activity against Staphylococcus aureus ATCC 6538 infected in BALB/c mouse assessed as inhibition of bacterial colonization on wounded skin at 0.5 mg/ml applied on skin and measured after 2 hrs relative to control; format: functional
[28] = test system: Staphylococcus aureus; assay: Antibacterial activity against methicillin-resistant Staphylococcus aureus 51 assessed as inhibition of bacterial growth incubated for 24 hrs by tube microdilution assay; format: functional
[29] = test system: Staphylococcus aureus; assay: Antibacterial activity against Staphylococcus aureus 157752 assessed as inhibition of bacterial growth incubated for 24 hrs by tube microdilution assay; format: functional
[30] = test system: Staphylococcus aureus; assay: Antibacterial activity against Staphylococcus aureus 15192 assessed as inhibition of bacterial growth incubated for 24 hrs by tube microdilution assay; format: functional
[31] = test system: Acinetobacter baumannii; assay: Antibiofilm activity against preformed Acinetobacter baumannii ATCC 19606 biofilms assessed as biofilm eradication at 1X to 10XMIC incubated for 24 hrs by crystal violet staining based analysis; format: functional, organism-based
[32] = test system: Staphylococcus aureus; assay: Antibacterial activity against Staphylococcus aureus ATCC 6538 infected in BALB/c mouse assessed as inhibition of bacterial colonization on wounded skin at 2 mg/ml applied on skin and measured after 2 hrs relative to control; format: functional
[33] = test system: Pseudomonas aeruginosa; assay: Induction of bacterial cell rupture in Pseudomonas aeruginosa ATCC 27853 assessed as induction of internal perturbations and breaks along the membrane at 5XMIC measured after 30 mins transmission electron microscopy; format: functional, organism-based
[34] = test system: Pseudomonas aeruginosa; assay: Antibacterial activity against Pseudomonas aeruginosa 52097 assessed as inhibition of bacterial growth incubated for 24 hrs by tube microdilution assay; format: functional
[35] = test system: Staphylococcus aureus; assay: Antibacterial activity against Staphylococcus aureus 15775 assessed as inhibition of bacterial growth incubated for 24 hrs by tube microdilution assay; format: functional
[36] = test system: Staphylococcus aureus; assay: Antibacterial activity against Staphylococcus aureus 220823 assessed as inhibition of bacterial growth incubated for 24 hrs by tube microdilution assay; format: functional
[37] = test system: Staphylococcus aureus; assay: Antibacterial activity against Staphylococcus aureus 15772 assessed as inhibition of bacterial growth incubated for 24 hrs by tube microdilution assay; format: functional
[38] = test system: Pseudomonas aeruginosa; assay: Antibacterial activity against Pseudomonas aeruginosa 60357 assessed as inhibition of bacterial growth incubated for 24 hrs by tube microdilution assay; format: functional
[39] = test system: Acinetobacter baumannii; assay: Antibiofilm activity against Acinetobacter baumannii ATCC 19606 assessed as inhibition of biofilm formation at 1X to 10XMIC incubated for 24 hrs by crystal violet staining based analysis; format: functional, organism-based
[40] = test system: Staphylococcus aureus; assay: Antibiofilm activity against Staphylococcus aureus ATCC 6538 assessed as inhibition of biofilm formation at 1X to 10XMIC incubated for 24 hrs by crystal violet staining based analysis; format: functional, organism-based

H-RRGIKKFIKKVKKVKKAI-OH
MIC [1]: 2.34 mg/L
MIC [2]: 2.34 mg/L
Activity [3]: Non-toxic
MIC [4]: 1.17 mg/L
MIC [5]: 2.34 mg/L
Activity [6]: Dose-dependent-effect; Less Efficacy Compared To Colistin, Reflected By Reduced Efficacy After Plasma Treatment
MIC [7]: 2.34 mg/L
Activity [8]: Active
MIC [9]: 2.34 mg/L
Activity [10]: Dose-dependent-effect
Activity [11]: 100%
Activity [12]: Dose-dependent-effect
Activity [13]: Dose-dependent-effect
Activity [14]: Dose-dependent-effect
Activity [15]: Dose-dependent-effect
MIC [16]: 2.34 mg/L
Activity [17]: Active
MIC [18]: 9.37 mg/L
Activity [19]: Non-toxic
MIC [20]: 1.17 mg/L
Activity [21]: Dose-dependent-effect
Activity [22]: Active
Activity [23]: Active; Roughening And Blebbing Of Membrane Is Less Pronounced Than In Pseudomonas Aeruginosa
Activity [24]: Active
MIC [25]: 2.34 mg/L
Ratio [26]: 4
inhibition in vivo at 500 µg/mL [27]: 71.8%
MIC [28]: 2.34 mg/L
MIC [29]: 2.34 mg/L
MIC [30]: 2.34 mg/L
Activity [31]: Active
inhibition in vivo at 2000 µg/mL [32]: 82.4%
Activity [33]: Active
MIC [34]: 1.17 mg/L
MIC [35]: 2.34 mg/L
MIC [36]: 2.34 mg/L
MIC [37]: 2.34 mg/L
MIC [38]: 1.17 mg/L
Activity [39]: Dose-dependent-effect
Activity [40]: Dose-dependent-effect
